According to patent US8653046B2, “Controlling transgene expression across the skin” (ETH Zurich, priority 2009, dated 2014):

Experiments:
[1] = Stability (half-live) of phloretin in culture medium, quantified via CHO-PEACE8 SEAP calibration curve; assay type: physicochemical
CHO-K1 = test: Toxicity of flavonoids: CHO-K1 transiently transfected with pSEAP2-Control, SEAP levels after 48 h; details: 0, 25, 50 μM, genistein cytotoxic only at 50 μM
Experimental: (A) Toxicity of flavonoids. CHO-K1 are transiently transfected with pSEAP2-Control, and cultivated in medium supplemented with different flavonoids (0, 25, 50 μM). SEAP levels are scored after 48 h.
CHO-K1 are transiently (co-)transfected with either pMG10 (PTtgR1-SEAP-pA) and pMG11 (PSV40-TtgA1-pA), to score regulation performance, or with pSEAP2-Control (PSV40-SEAP-pA), to assess compound-related cytotoxicity, and then cultivated for 48 h in medium containing different concentrations (0, 25, 50 μM) of specific flavonoid type compounds (berberine, butylparaben, genistein, luteolin, β-naphthol, naringenin, phloretin, phloridzin or quercetin) before SEAP production is profiled (FIG. 5A).
Wild-type Chinese hamster ovary cells (CHO-K1, ATCC: CCL-61) and their derivatives are cultivated in standard medium: ChoMaster® HTS (Cell Culture Technologies, Gravesano, Switzerland) supplemented with 5% (v/v) fetal calf serum (FCS, PAN Biotech GmbH, Aidenbach, Germany, Cat. No. 3302, Lot No. P251110) and 1% (v/v) penicillin/streptomycin solution (Sigma, St Louis, Mo., USA, Cat. No. P4458). Human embryonic kidney cells (HEK-293, Mitta B., et al., 2002, Nucleic Acids Res 30(21):e113), African green monkey kidney cells (COS-7, ATCC: CRL-1651), baby hamster kidney cells (BHK-21, ATCC: CCL10), human fibrosarcoma cells (HT-1080, ATCC: CCL-121), the human keratinocyte cell line HaCaT (Boukamp P., et al., 1988, J Cell Biol 106(3):761-771) and mouse fibroblasts (NIH/3T3, ATCC: CRL-1658) are cultured in Dulbecco's modified Eagle's medium (DMEM; Invitrogen, Cat. No. 52100-39) supplemented with 10% FCS (v/v) and 1% (v/v) penicillin/streptomycin solution. Primary human foreskin fibroblasts are cultivated in DMEM supplemented with 20% FCS (v/v) and 1% (v/v) penicillin/streptomycin solution and primary human foreskin keratinocytes are cultured in chemically defined serum-free keratinocyte medium (Invitrogen, Cat. No. 10744019). All cell types are cultivated at 37° C. in a 5% CO2-containing humidified atmosphere. For transient transfection of CHO-K1, 1 μg of total plasmid DNA (for co-transfection an equal amount of each plasmid) is transfected into 50,000 cells per well of a 24-well plate according to an optimized calcium phosphate protocol (Greber D., Fussenegger M., 2007, Biotechnol Bioeng 96(5):821-834). Plasmid DNA is diluted to a total volume of 25 μL 0.5 M CaCl2 solution, which is mixed with 25 μL 2×HBS solution (50 mM HEPES, 280 mM NaCl, 1.5 mM Na2HPO4, pH 7.1). After incubation for 15 min at room temperature, the precipitates are immediately added to the well and centrifuged onto the cells (5 min at 1,200×g) to increase transfection efficiency. After 3 h, the cells are treated with 0.5 mL glycerol solution (ChoMaster® HTS medium containing 15% glycerol) for 60 sec. After washing once with phosphate-buffered saline (PBS, Dulbecco's Phosphate-Buffered Saline; Invitrogen, Cat. No. 21600-0069), cells are cultivated in 0.5 mL standard ChoMaster® HTS medium in the presence or absence of different concentrations of phloretin. For transfection of BHK-21, COS-7 and HEK-293, plasmid DNA-Ca2PO4 precipitate is prepared and applied to the cells as described above. HEK-293 and COS-7 cells are washed once with PBS after 3 h incubation with the DNA-Ca2PO4 precipitate and subsequently cultivated in standard DMEM, while BHK-21 cells are incubated overnight with the precipitates and then cultivated in DMEM medium after being washed once with PBS. […]

[2] = system: macrolide-responsive control system (ET1, E-VP16; PETR3-SAMY-pA); test: Compatibility test: macrolide-responsive (EOFF) SAMY production in CHO-PEACE8 (pWW35, pBP100); assay type: cell-based; details: CHO-PEACE8 transiently transfected with macrolide-responsive control system; Phl 50 μM, EM 2 μg/mL; 48 h; 100 = no inducer
Source text: (§1) To evaluate the functional compatibility of PEACE with the established tetracycline— [TETOFF; Gossen M., Bujard H., 1992, Proc Natl Acad Sci USA 89(12):5547-5551] and macrolide— [EOFF; Weber W., et al., 2002, Nat Biotechnol 20(9):901-907] responsive expression circuits CHO-PEACE8 is transiently transfected, transgenic for phloretin-responsive SEAP expression, with either the TETOFF-(pSAM200, PSV40-tTA-pA; pBP99, PhCMV*-1-SAMY-pA) or the EOFF-(PWW35, PSV40-ET1-pA; pBP100, PETR3-SAMY-pA) system set to control the Bacillus stearothermophilus-derived secreted α-amylase (SAMY) in response to tetracycline and erythromycin, respectively. SEAP and SAMY expression are scored 48 h after cultivation of the transfected populations in the presence (50 μM; 2 μg/mL) or absence of the inducer molecules (phloretin, tetracycline, erythromycin).

TtgA1 (TtgR-VP16) = TtgA1 (TtgR-VP16) (Pseudomonas putida, UniProt Q9AIU0); test: Compatibility test: phloretin-responsive SEAP production of CHO-PEACE8; assay type: cell-based, Pseudomonas putida DOT-T1E; set-up: expressed in transfected cells; host or cells: CHO-K1 (transient pMG11 or pMG13); also HEK-293, BHK-21, COS-7, HaCaT, HT-1080, NIH/3T3, primary human fibroblasts and keratinocytes; details: Phl 50 μM, 48 h, 100 = no inducer
Sequence of TtgA1 (TtgR-VP16) (Q9AIU0 whole entry, added parts left off): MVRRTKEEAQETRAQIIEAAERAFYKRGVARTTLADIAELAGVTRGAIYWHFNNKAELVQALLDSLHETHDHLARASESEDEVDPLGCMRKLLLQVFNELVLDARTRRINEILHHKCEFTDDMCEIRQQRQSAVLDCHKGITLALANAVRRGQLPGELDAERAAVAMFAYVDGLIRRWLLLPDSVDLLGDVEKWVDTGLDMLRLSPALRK
Source text: as §1
The stable CHO-PEACE8 cell line, transgenic for phloretin-controlled SEAP expression, is constructed in two steps: (i) CHO-K1 cells are co-transfected with pMG11 (PSV40-TtgA1-pA) and pSV2neo (Clontech, Cat. No. 6172-1) at a ratio of 20:1 and clonal selection results in the cell line CHO-TtgA. (ii) CHO-TtgA is co-transfected with pMG10 (PTtgR1-SEAP-pA) and pPur (Clontech, Cat. No. 6156-1) (ratio of 20:1) and the phloretin-responsive SEAP-producing double-transgenic cell line CHO-PEACE8 is chosen after clonal selection. […] Reversibility of phloretin-mediated SEAP production is assessed by cultivating CHO-PEACE8 (100,000 cells/mL) for 144 h while alternating phloretin concentrations from 0 to 50 μM every 48 h.

SMILES: O=C(CCc1ccc(O)cc1)c1c(O)cc(O)cc1O [phloretin, 3-[4-hydroxyphenyl]-1-[2,4,6-trihydroxyphenyl]-1-propanone]
- functional half-live ([1]; cell-free culture medium, levels determined over 64 h): 70 h
- half-live ([1]; mammalian cell culture systems): 70 h
- compound-related cytotoxicity / cell viability (CHO-K1): do not reduce cell viability
- Relative SAMY Production (%) [2]: 100.6 ± 7.0%
- Relative SEAP Production (%) (TtgA1 (TtgR-VP16); CHO-PEACE8 transiently transfected with macrolide-responsive control system, EM 2 μg/mL): 2.0 ± 1.2%
- Relative SEAP Production (%) (TtgA1 (TtgR-VP16); CHO-PEACE8 transiently transfected with tetracycline-responsive control system, Tet 2 μg/mL): 2.2 ± 0.2%
